{"source": "patent US20070020193A1", "about": "“Dronabinol compositions and methods for using same” (priority 2005, published 2007)", "assay": "Example 2 multiple rising dose inhaled delta-9-THC study: plasma pharmacokinetics", "experimental": "A randomized, double-blind, placebo-controlled, multiple rising dose safety, tolerability, pharmacokinetic and pharmacodynamic study to assess two dose levels of inhaled delta-9-THC was conducted. Dose levels were studied in ascending order. Two consecutive groups (n=9/group) of healthy subjects were studied (Groups I and II). […] There was a lapse of at least 10 days between the groups for interim safety and pharmacokinetic analysis. Two dose levels were studied in ascending order. […] Subjects in each treatment Group (I or II) received single and multiple doses of inhaled delta-9-THC according to the following schedule:\nFor both dose levels, the first and the last dose of study drug was given under fasted conditions. Subjects were confined to the study site from the evening of Day −2 (Day 1 is the day of administration of the first dose of study drug) until the 120-hour blood sample following the final dose of study drug, resulting in an 18-day confinement period for subjects in Group I and a 25-day confinement period for Group II. Between the completion of Group I and the start of Group II, an interim safety and pharmacokinetic analysis was performed. Based on the results of the interim analyses, the dose level for investigation in Group II was determined.\nTwo MDI dosage strengths were used corresponding to the same formulations used in Example 1: one delivering 0.3 mg delta-9-THC (or placebo) per actuation and one delivering 1.2 mg delta-9-THC (or placebo) per actuation. The MDI consisted of a pressurized (via propellants) container and a metered-dose valve. The propellants provided the necessary force to expel the drug, and also acted as a solvent and diluent. The canister unit was provided within a mouthpiece (oral adapter), to expel an exact amount of drug, in the proper particle size distribution, upon each actuation. Two basic formulations containing 0.3 and 1.2 mg of delta-9-THC per 50 μL were developed with propellant 1,1,1,2 tetrafluoroethane 134a (HFA 134a), and ethanol as solvent. The formulations were made in accordance with the composition used in Example 1.\nWhole blood samples were collected according to the assessment flowchart in EDTA tubes through venepuncture or indwelling catheter. Samples were immediately placed on ice and subsequently centrifuged within 30 minutes at 1,500 g for 10 minutes. Plasma was transferred into a 5 ml screw cap polypropylene tube, stoppered and stored at below minus 20° C. until transfer to the analytical laboratory for analysis. […] The measurement ranges were 0.05-30 ng/ml for delta-9-THC, 0.04-30 ng/ml for 11-OH-THC, and 0.25-10 ng/ml for THC-COOH.\nFor Example 2: The statistical analysis encompassed an exploratory analysis of the single and multiple dose pharmacokinetics and dose proportionality of two dose levels of inhaled delta-9-THC in healthy subjects. Descriptive statistics included number of subjects, mean, standard deviation, coefficient of variation (%) and geometric mean for all pharmacokinetic parameters.\nThe exploratory analysis was performed on the logarithms of the dose-normalized pharmacokinetic parameters AUC(0-inf), AUC(0-t), AUC(0-τ) and Cmax. Dose proportionality was tested both at single dose and at multiple dose (steady state) by comparing the dose groups for all pharmacokinetic parameters by an analysis of variance with dose as fixed effect.\nDose proportionality was tested by the contrast between the dose groups. For this contrast on the logarithmic scale, p-values were given. After anti-logarithmic transformation, the resultant ratios of geometric means and 90% confidence intervals were given.\nAccumulation was tested by comparing the steady state values for AUC(0-τ) with the single dose values for AUC(0-τ) by a mixed model analysis of variance with dose and day (with levels single dose and steady state) as fixed effects and subject within dose as random effect.", "data": [{"smiles": "CCCCCc1cc(O)c2c(c1)OC(C)(C)C1CCC(C(=O)O)=CC21", "note": "(stereo not drawn) [THC-COOH, delta-9-tetrahydrocannbinol-carboxylic acid]", "values": [{"measurement": "achievement of steady state", "setting": "1.2 mg delta-9-THC three times daily", "result": "lack of steady state"}, {"measurement": "Cmax, Geometric Mean (Range)", "setting": "1.2 mg m.d. (three times daily), Day 12, Group I", "result": "7.97 (6.03-10.9) ng/mL"}, {"measurement": "AUC(0-8), Arithmetic Mean (SD)", "setting": "1.2 mg m.d., Day 12, Group I", "result": "51.9 (14.7) ng · h/mL"}, {"measurement": "AUC(0-8), Geometric Mean (Range)", "setting": "1.2 mg m.d., Day 12, Group I", "result": "50.1 (34.1-69.8) ng · h/mL"}, {"measurement": "Cmax, Arithmetic Mean (SD)", "setting": "1.2 mg m.d., Day 12, Group I", "result": "8.15 (1.87) ng/mL"}, {"measurement": "tmax, Arithmetic Mean (SD)", "setting": "1.2 mg m.d., Day 12, Group I", "result": "0.86 (0.88) h"}, {"measurement": "tmax, median (range)", "setting": "1.2 mg m.d., Day 12, Group I", "result": "0.33 (0.25-2.00) h"}, {"measurement": "t½, Arithmetic Mean (SD)", "setting": "1.2 mg m.d., Day 12, Group I", "result": "32.1 (9.07) h"}, {"measurement": "t½, Geometric Mean (Range)", "setting": "1.2 mg m.d., Day 12, Group I", "result": "31.0 (23.2-43.8) h"}, {"measurement": "AUC(0-8), Arithmetic Mean (SD)", "setting": "1.2 mg s.d., Day 1", "result": "18.5 (3.85) ng · h/mL"}, {"measurement": "AUC(0-8), Geometric Mean (Range)", "setting": "1.2 mg s.d., Day 1", "result": "18.2 (13.0-24.2) ng · h/mL"}, {"measurement": "AUC(0-inf), Arithmetic Mean (SD)", "setting": "1.2 mg s.d., Day 1", "result": "83.6 (18.5) ng · h/mL"}, {"measurement": "AUC(0-inf), Geometric Mean (Range)", "setting": "1.2 mg s.d., Day 1", "result": "82.0 (60.5-110) ng · h/mL"}, {"measurement": "tmax, Arithmetic Mean (SD)", "setting": "1.2 mg s.d., Day 1", "result": "1.54 (0.75) h"}, {"measurement": "tmax, median (range)", "setting": "1.2 mg s.d., Day 1", "result": "2.00 (0.25-2.00) h"}, {"measurement": "t½, Arithmetic Mean (SD)", "setting": "1.2 mg s.d., Day 1", "result": "33.9 (12.8) h"}, {"measurement": "t½, Geometric Mean (Range)", "setting": "1.2 mg s.d., Day 1", "result": "32.0 (23.9-50.6) h"}, {"measurement": "Cmax, Arithmetic Mean (SD)", "setting": "1.2 mg s.d., Day 1, plasma", "result": "3.81 (0.56) ng/mL"}, {"measurement": "Cmax, Geometric Mean (Range)", "setting": "1.2 mg s.d., Day 1, plasma", "result": "3.77 (2.81-4.40) ng/mL"}, {"measurement": "Cmax, Geometric Mean (Range)", "setting": "3.6 mg m.d. (three times daily), Day 19, Group II", "result": "25.5 (13.2-45.0) ng/mL"}, {"measurement": "AUC(0-8), Arithmetic Mean (SD)", "setting": "3.6 mg m.d., Day 19, Group II", "result": "182 (97.5) ng · h/mL"}, {"measurement": "AUC(0-8), Geometric Mean (Range)", "setting": "3.6 mg m.d., Day 19, Group II", "result": "159 (75.5-317) ng · h/mL"}, {"measurement": "Cmax, Arithmetic Mean (SD)", "setting": "3.6 mg m.d., Day 19, Group II", "result": "28.1 (12.7) ng/mL"}, {"measurement": "tmax, Arithmetic Mean (SD)", "setting": "3.6 mg m.d., Day 19, Group II", "result": "1.03 (0.79) h"}, {"measurement": "tmax, median (range)", "setting": "3.6 mg m.d., Day 19, Group II", "result": "0.75 (0.33-2.00) h"}, {"measurement": "t½, Arithmetic Mean (SD)", "setting": "3.6 mg m.d., Day 19, Group II", "result": "39.6 (15.3) h"}, {"measurement": "t½, Geometric Mean (Range)", "setting": "3.6 mg m.d., Day 19, Group II", "result": "37.4 (24.0-62.3) h"}, {"measurement": "AUC(0-8), Arithmetic Mean (SD)", "setting": "3.6 mg s.d., Day 1", "result": "47.1 (17.5) ng · h/mL"}, {"measurement": "AUC(0-8), Geometric Mean (Range)", "setting": "3.6 mg s.d., Day 1", "result": "44.5 (30.2-74.4) ng · h/mL"}, {"measurement": "AUC(0-inf), Arithmetic Mean (SD)", "setting": "3.6 mg s.d., Day 1", "result": "172 (85.6) ng · h/mL"}, {"measurement": "AUC(0-inf), Geometric Mean (Range)", "setting": "3.6 mg s.d., Day 1", "result": "152 (64.8-283) ng · h/mL"}, {"measurement": "tmax, Arithmetic Mean (SD)", "setting": "3.6 mg s.d., Day 1", "result": "2.33 (0.52) h"}, {"measurement": "tmax, median (range)", "setting": "3.6 mg s.d., Day 1", "result": "2.00 (2.00-3.00) h"}, {"measurement": "t½, Arithmetic Mean (SD)", "setting": "3.6 mg s.d., Day 1", "result": "23.8 (11.3) h"}, {"measurement": "t½, Geometric Mean (Range)", "setting": "3.6 mg s.d., Day 1", "result": "21.7 (11.3-39.2) h"}, {"measurement": "Cmax, Arithmetic Mean (SD)", "setting": "3.6 mg s.d., Day 1, plasma", "result": "8.75 (3.16) ng/mL"}, {"measurement": "Cmax, Geometric Mean (Range)", "setting": "3.6 mg s.d., Day 1, plasma", "result": "8.34 (6.01-14.4) ng/mL"}, {"measurement": "achievement of steady state", "setting": "3.6-mg dose level three times daily", "result": "achieved after seven or eight days of dosing"}, {"measurement": "accumulation during multiple dosing", "setting": "8-hours dosing interval", "result": "accumulation occurred during multiple dosing"}, {"measurement": "Ratio AUC(0-8) m.d./AUC(0-8) s.d. (Accumulation factor), Mean", "setting": "Group I, 1.2 mg", "result": 2.90}, {"measurement": "Ratio AUC(0-8) m.d./AUC(0-inf) s.d. (Linearity), Mean", "setting": "Group I, 1.2 mg", "result": 0.65}, {"measurement": "Ratio AUC(0-8) m.d./AUC(0-8) s.d. (Accumulation factor), Mean", "setting": "Group II, 3.6 mg", "result": 3.92}, {"measurement": "Ratio AUC(0-8) m.d./AUC(0-inf) s.d. (Linearity), Mean", "setting": "Group II, 3.6 mg", "result": 1.11}, {"measurement": "dose proportionality: geometric mean ratio (3.6 mg:1.2 mg) of dose-normalized AUC(0-8) (90% confidence interval)", "setting": "Multiple dose", "result": "1.05 (0.65-1.71)"}, {"measurement": "dose proportionality: geometric mean ratio (3.6 mg:1.2 mg) of dose-normalized Cmax (90% confidence interval)", "setting": "Multiple dose", "result": "1.07 (0.71-1.60)"}, {"measurement": "dose proportionality: geometric mean ratio (3.6 mg:1.2 mg) of dose-normalized AUC(0-8) (90% confidence interval)", "setting": "Single dose", "result": "0.82 (0.60-1.11)"}, {"measurement": "dose proportionality: geometric mean ratio (3.6 mg:1.2 mg) of dose-normalized AUC(0-inf) (90% confidence interval)", "setting": "Single dose", "result": "0.62 (0.39-0.98)"}, {"measurement": "dose proportionality: geometric mean ratio (3.6 mg:1.2 mg) of dose-normalized AUC(0-t) (90% confidence interval)", "setting": "Single dose", "result": "0.61 (0.34-1.09)"}, {"measurement": "dose proportionality: geometric mean ratio (3.6 mg:1.2 mg) of dose-normalized Cmax (90% confidence interval)", "setting": "Single dose", "result": "0.74 (0.56-0.96)"}, {"measurement": "exposure, fold higher compared to the parent", "setting": "after both single and multiple dose administration", "result": "approximately 10 fold"}, {"measurement": "Cmax, fold lower compared to the parent compound", "setting": "after single dosing", "result": 5, "unit": "fold"}, {"measurement": "dose proportionality of pharmacokinetic parameters", "setting": "after single or multiple dose administration", "result": "not found to deviate significantly"}, {"measurement": "plasma concentration-time curve, elimination profile", "setting": "both dose levels", "result": "almost no distribution phase and a multi-phasic elimination phase"}, {"measurement": "time of peak plasma concentration", "setting": "both dose levels, post-dose", "result": "between 15 minutes and 3 hours post-dose"}, {"measurement": "ratios of AUC(0-8) after multiple dosing versus AUC(0-inf) after single dose (linearity)", "setting": "in vivo", "result": "did not deviate clearly or significantly from unity"}, {"measurement": "Cmax and AUC values versus dose", "setting": "single and multiple dose administration, 1.2 and 3.6 mg", "result": "Dose-related increases"}, {"measurement": "Terminal elimination half-lives (summary estimate)", "setting": "summary, best estimated after multiple dosing", "result": "~30", "unit": "h"}]}]}
